Measured values from patent US8790874B2, “Device for investigation of a flow conduit” (priority 2008, dated 2014).

Key:
Type in all cases: cell-based
mesenteric arteries [1] = assay: PE dose response of mesenteric arteries, conventional pipette cannulation setup; conditions: 3.0 μM PE applied to exterior surface, n=5
Excerpt: The device may be used to investigate responses of biological flow conduits. […] In this example, PE was applied to the exterior surface of the flow conduit, and the dose of PE was changed in a stepwise fashion.

mouse mesenteric vessel = assay: Constriction of a mesenteric vessel in the device, single dose of PE; conditions: 3.0 μM PE, representative tracing
Method: In another example, the device was used to investigate a mesenteric vessel. […] In this example, a mouse mesenteric vessel was used, and a single does of PE was administered. The PE was applied to the exterior surface of the flow conduit. a) is a representative tracing of a mesenteric vessel's response to 3.0 μM PE, with a sustained constriction of 41.8%, measured in freshly isolated arteries that were immediately subjected to the stimulation with PE. b) is a representative tracing of a single mesenteric vessel kept in culture for 24 hours on the device prior to testing the response to PE, showing a sustained constriction of 41.4% to 3.0 μM PE.

mesenteric arteries [2] = assay: PE dose response of mesenteric arteries measured using the device; conditions: 3.0 μM PE applied to exterior surface, n=5
Excerpt: An example process of loading a flow conduit, in this case an artery, into this example embodiment of the device is now described. The device was initially flushed with a Bovine serum albumin (BSA) solution to prevent any unwanted adhesion of arteries to the walls of the main channel or culture chamber. […] As an alternative to the reversible fixation of the artery used here, an irreversible fixation method may be used, as discussed above.
Upon fixation (e.g., using a reversible fixation method), the lumen of the artery was perfused by operating a syringe pump, connected to an inlet of the culture channel, in the perfusion mode. By connecting the inlet and outlet of the culture channel to different hydrostatic pressure levels, a flow through the culture chamber was achieved while maintain a defined transmural pressure difference across the wall of the artery. A flow through the culture chamber was achieved while maintaining a defined transmural pressure difference (i.e., P1−P3 in FIG. 1) by superfusing the culture chamber with a second syringe pump that operates in the perfusion mode, connected at the inlet of the culture channel. The outlet of the culture channel was thus led to a reduced hydrostatic pressure level. […]

mouse mesenteric artery = assay: FURA-2 Ca2+ ratiometric measurements on a mesenteric artery fixed on the device; conditions: stimulation with 3.0 μM PE; return to baseline following washout
Excerpt: The smooth muscle cells in the artery are stained.

SMILES: CNC[C@H](O)c1cccc(O)c1 [PE, phenylephrine]
- maximal outer diameter constriction (mesenteric arteries [1]): 44.5+/−2.5%
- sustained constriction (mouse mesenteric vessel; freshly isolated arteries, immediately stimulated): 41.8%
- sustained constriction (mouse mesenteric vessel; vessel kept in culture for 24 hours on the device before testing): 41.4%
- maximal outer diameter constriction (mesenteric arteries [2]): 42.2+/−3.8%
- FURA-2 ratio (F340nm/F380nm) (mouse mesenteric artery): increase in FURA-2 ratio
